According to PubChem BioAssay AID198 (DTP/NCI, 2004):
Values joined by “and” are separate entries in the source; they are usually repeats but may differ in a detail not shown here. Equal entries are not always repeated. Inconclusive results and toxic doses are left out.

Test system: B16 melanoma ip, C57BL/6 mice, median survival T/C
Assay: NCI In Vivo Anticancer Drug Screen. Data for tumor model B16 Melanoma (intraperitoneal) in C57BL/6 mice
Details: endpoint: median survival time, higher = longer survival
Description: The antitumor activity of compounds was measured in mice bearing transplantable tumors. Survival or tumor size were measured and the results are expressed as the measurement made in the treated group (T) divided by the measurement made in the vehicle treated control group (C). The tumor model used in this assay is B16 Melanoma (intraperitoneal) in C57BL/6 mice

[1] = dose: 8.0 mg/kg/injection, schedule: Q01DX009 (ip), vehicle: saline
[2] = dose: 16.0 mg/kg/injection, schedule: Q01DX009 (ip), vehicle: saline
[3] = dose: 31.3 mg/kg/injection, schedule: Q01DX009 (ip), vehicle: saline
[4] = dose: 50.0 mg/kg/injection, schedule: Q01DX009 (ip), vehicle: saline
[5] = dose: 100.0 mg/kg/injection, schedule: Q01DX009 (ip), vehicle: saline
[6] = dose: 200.0 mg/kg/injection, schedule: Q01DX009 (ip), vehicle: saline
[7] = dose: 400.0 mg/kg/injection, schedule: Q01DX009 (ip), vehicle: saline
[8] = dose: 12.5 mg/kg/injection, schedule: Q01DX009 (ip), vehicle: saline
[9] = dose: 25.0 mg/kg/injection, schedule: Q01DX009 (ip), vehicle: saline
[10] = dose: 100.0 mg/kg/injection, schedule: Q01DX009 (ip), vehicle: saline with Tween-80
[11] = dose: 200.0 mg/kg/injection, schedule: Q01DX009 (ip), vehicle: saline with Tween-80
[12] = dose: 400.0 mg/kg/injection, schedule: Q01DX009 (ip), vehicle: saline with Tween-80
[13] = dose: 15.6 mg/kg/injection, schedule: Q01DX009 (ip), vehicle: saline
[14] = dose: 62.5 mg/kg/injection, schedule: Q01DX009 (ip), vehicle: saline
[15] = dose: 125.0 mg/kg/injection, schedule: Q01DX009 (ip), vehicle: saline
[16] = dose: 25.0 mg/kg/injection, schedule: Q01DX009 (ip), vehicle: saline with Tween-80
[17] = dose: 50.0 mg/kg/injection, schedule: Q01DX009 (ip), vehicle: saline with Tween-80
[18] = dose: 3.13 mg/kg/injection, schedule: Q01DX009 (ip), vehicle: saline
[19] = dose: 6.25 mg/kg/injection, schedule: Q01DX009 (ip), vehicle: saline

For `Nc1ncnc2c(C3OC(CO)C(O)C3O)[nH]nc12` (stereo not drawn), the T/C [1] was 153 % of control, the T/C [2] was 113 % of control and the T/C [3] was 157 % of control.
`CC[C@H]1CN2CCc3cc(OC)c(OC)cc3[C@@H]2C[C@@H]1C[C@H]1NCCc2cc(OC)c(OC)cc21` was tested, and the T/C (dose: 1.0 mg/kg/injection, schedule: Q03DX005 (ip), vehicle: saline) was 106 % of control, the T/C (dose: 2.0 mg/kg/injection, schedule: Q03DX005 (ip), vehicle: saline) was 109 % of control and the T/C (dose: 16.0 mg/kg/injection, schedule: Q03DX005 (ip), vehicle: saline) was 87 % of control.
In the case of `O=C1CN(CCN2CC(=O)NC(=O)C2)CC(=O)N1`, the T/C (dose: 30.0 mg/kg/injection, schedule: Q01DX009 (ip), vehicle: saline) is reported as 150 % of control.
For `COc1cc2c(cc1OC)C(c1cc(OC)c(OC)c(OC)c1)C1(O)C(=O)OCC1(O)C2` (stereo not drawn), the T/C [4] was 93 % of control, the T/C [5] was 93 % of control and the T/C [6] was 86 % of control. For the same compound, the T/C [7] was 86 % of control.
`CC(=O)[C@@]1(O)CC[C@H]2[C@@H]3C[C@H](C)C4=CC(=O)C=C[C@]4(C)[C@@]3(F)[C@@H](O)C[C@@]21C` was tested, and the T/C [8] was 105 % of control, the T/C (dose: 12.5 mg/kg/injection, schedule: Q01DX009 (sc), vehicle: steriod suspending solution) was 106 % of control and the T/C [9] was 105 % of control. The T/C (dose: 25.0 mg/kg/injection, schedule: Q01DX009 (sc), vehicle: steriod suspending solution) was 103 % of control, the T/C [4] was 100 % of control and the T/C [5] was 100 % of control.
With `O=NN(CCCl)C(=O)NCCCl` the T/C (dose: 7.5 mg/kg/injection, schedule: Q01DX009 (ip), vehicle: saline) was 164 % of control and 213 % of control and the T/C (dose: 15.0 mg/kg/injection, schedule: Q01DX009 (ip), vehicle: saline) was 121 % of control.
In the case of `C/C(=C\COc1ccc2ccc(=O)oc2c1)C1=CC(=O)C(C)(C)O1`, the T/C [10] is reported as 94 % of control, the T/C [11] is reported as 100 % of control and the T/C [12] is reported as 94 % of control.
In the case of `C[n+]1c2ccccc2c(Nc2ccc(NS(=O)(=O)CCCCN=C(N)N)cc2)c2ccc(N)cc21`, the T/C (dose: 0.38 mg/kg/injection, schedule: Q01DX009 (ip), vehicle: water) is reported as 115 % of control, the T/C (dose: 0.75 mg/kg/injection, schedule: Q01DX009 (ip), vehicle: water) is reported as 158 % of control and the T/C (dose: 1.5 mg/kg/injection, schedule: Q01DX009 (ip), vehicle: water) is reported as 151 % of control. For the same compound, the T/C (dose: 3.0 mg/kg/injection, schedule: Q01DX009 (ip), vehicle: water) was 113 % of control and the T/C (dose: 6.0 mg/kg/injection, schedule: Q01DX009 (ip), vehicle: water) was 101 % of control.
`O=C(O)CCCCSc1ncnc2nc[nH]c12` was tested, and the T/C [10] was 110 % of control, the T/C [11] was 103 % of control and the T/C [12] was 114 % of control.
For `C=CCN(CC=C)c1ncnc2[nH]ncc12`, the T/C [13] was 105 % of control, the T/C [3] was 100 % of control and the T/C [14] was 102 % of control. For the same compound, the T/C [15] was 102 % of control.
For `O=C(Nc1ccc(C2=NCCN2)cc1)c1ccc(C(=O)Nc2ccc(C3=NCCN3)cc2)cc1`, the T/C [1] was 100 % of control, the T/C [2] was 92 % of control and 109 % of control and the T/C (dose: 32.0 mg/kg/injection, schedule: Q01DX009 (ip), vehicle: saline) was 92 % of control and 106 % of control. For the same compound, the T/C (dose: 64.0 mg/kg/injection, schedule: Q01DX009 (ip), vehicle: saline) was 96 % of control and 106 % of control.
For `CC(C)S(=O)(=O)/C(Cl)=C(/Cl)C(Cl)=C(Cl)Cl`, the T/C [16] was 94 % of control and the T/C [17] was 97 % of control.
`Nc1nc2ncc(CNc3ccc(C(=O)NC(CCC(=O)O)C(=O)O)cc3)nc2c(=O)[nH]1` (stereo not drawn) was tested, and the T/C [8] was 100 % of control and 103 % of control and the T/C [9] was 97 % of control and 106 % of control.
In the case of `CCOC(=O)n1cnc2ncnc(SC)c21`, the T/C [13] is reported as 105 % of control, the T/C [3] is reported as 100 % of control and the T/C [14] is reported as 105 % of control. The T/C [15] was 100 % of control.
With `CCCC/C=C/CCCCCCCC(=O)OCCCCCCCCCCCCCCCC` the T/C (dose: 400.0 mg/kg/injection, schedule: Q01DX001 (ip), vehicle: saline with Tween-80) was 86 % of control.
With `COc1ccc(-c2c(C)c(C(=O)O)nc(-c3ccc4c(O)c(OC)c5c(c4n3)=NC(C)(C)N=5)c2N)c(O)c1OC` the T/C (dose: 10.0 mg/kg/injection, schedule: Q01DX009 (ip), vehicle: saline) was 124 % of control and the T/C (dose: 20.0 mg/kg/injection, schedule: Q01DX009 (ip), vehicle: saline) was 107 % of control.
In the case of `CN(C)/N=N/c1nc[nH]c1C(N)=O`, the T/C [9] is reported as 116 % of control, the T/C [4] is reported as 120 % of control and the T/C [5] is reported as 150 % of control.
With `Cn1cc(NC(=O)c2cc(NC(=O)CN=C(N)N)cn2C)cc1C(=O)NCCC(=N)N` the T/C [18] was 100 % of control and 107 % of control, the T/C [19] was 100 % of control and 107 % of control and the T/C [8] was 100 % of control. The T/C [9] was 86 % of control.
With `O=NN(CCF)C(=O)NC1CCS(=O)(=O)CC1` the T/C (dose: 7.5 mg/kg/injection, schedule: Q01DX001 (ip), vehicle: saline) was 212 % of control, the T/C (dose: 15.0 mg/kg/injection, schedule: Q01DX001 (ip), vehicle: saline) was 200 % of control and the T/C (dose: 30.0 mg/kg/injection, schedule: Q01DX001 (ip), vehicle: saline) was 175 % of control.
With `COC1=C(N)C(=O)c2nc(-c3nc(C(=O)O)c(C)c(-c4ccc(OC)c(OC)c4O)c3N)ccc2C1=O` the T/C (dose: 0.03 mg/kg/injection, schedule: Q01DX009 (ip), vehicle: saline) was 103 % of control and the T/C (dose: 0.05 mg/kg/injection, schedule: Q01DX009 (ip), vehicle: saline) was 93 % of control and 100 % of control and 118 % of control.
With `CC1OC(O[C@@H]2C=C3CC[C@@H]4[C@H](CC[C@]5(C)[C@@H](c6ccc(=O)oc6)CC[C@]45O)[C@@]3(C)CC2)C(O)C(O)C1O` (stereo partly drawn) the T/C (dose: 2.5 mg/kg/injection, schedule: Q01DX009 (sc), vehicle: steriod suspending solution) was 113 % of control and the T/C (dose: 5.0 mg/kg/injection, schedule: Q01DX009 (sc), vehicle: steriod suspending solution) was 97 % of control.
In the case of `CC(=O)OC(C)(C)/C=C/C(=O)[C@](C)(O)[C@H]1[C@H](O)C[C@@]2(C)[C@@H]3CC=C4[C@@H](C[C@H](O)C(=O)C4(C)C)[C@]3(C)C(=O)C[C@]12C`, the T/C (dose: 0.25 mg/kg/injection, schedule: Q01DX009 (ip), vehicle: saline with Tween-80) is reported as 92 % of control, the T/C (dose: 0.5 mg/kg/injection, schedule: Q01DX009 (ip), vehicle: saline with Tween-80) is reported as 100 % of control and the T/C (dose: 1.0 mg/kg/injection, schedule: Q01DX009 (ip), vehicle: saline with Tween-80) is reported as 92 % of control.
`CCc1nc(N)nc(N)c1-c1ccc(Cl)cc1` was tested, and the T/C [9] was 96 % of control, the T/C [4] was 100 % of control and the T/C [5] was 93 % of control. The T/C [6] was 113 % of control.
`O=C(O)CCCc1ccc(N(CCCl)CCCl)cc1` was tested, and the T/C [18] was 96 % of control and 103 % of control, the T/C [19] was 100 % of control and 114 % of control and the T/C [8] was 106 % of control and 112 % of control. For the same compound, the T/C [9] was 86 % of control.
In the case of `CN1CCN(CCCN2c3ccccc3Sc3ccc(C(F)(F)F)cc32)CC1`, the T/C [9] is reported as 107 % of control.
With `CC1CC(C)(O)CC(C(O)CC2CC(=O)NC(=O)C2)C1=O` (stereo not drawn) the T/C (dose: 0.1 mg/kg/injection, schedule: Q01DX009 (ip), vehicle: saline) was 111 % of control, the T/C (dose: 0.2 mg/kg/injection, schedule: Q01DX009 (ip), vehicle: saline) was 122 % of control and the T/C (dose: 0.4 mg/kg/injection, schedule: Q01DX009 (ip), vehicle: saline) was 116 % of control. For the same compound, the T/C (dose: 0.8 mg/kg/injection, schedule: Q01DX009 (ip), vehicle: saline) was 86 % of control.
For `CC1([N+](=O)[O-])COP(=O)(NC2CCCC2)OC1` (stereo not drawn), the T/C [4] was 100 % of control, the T/C [5] was 96 % of control and the T/C [6] was 96 % of control.
`O=CC(S)CO` (stereo not drawn) was tested, and the T/C [9] was 120 % of control and the T/C [4] was 120 % of control.
For `O=c1[nH]cc(N(CCCl)CCCl)c(=O)[nH]1`, the T/C (dose: 1.5 mg/kg/injection, schedule: Q01DX009 (ip), vehicle: saline) was 87 % of control and 106 % of control.
For `c1ccc2sc(SSN3CC4CCC(CC4)C3)nc2c1`, the T/C (dose: 12.5 mg/kg/injection, schedule: Q01DX009 (ip), vehicle: saline with Tween-80) was 100 % of control, the T/C [16] was 94 % of control and the T/C [17] was 94 % of control. For the same compound, the T/C [10] was 89 % of control and the T/C [11] was 88 % of control.
In the case of `[N-]=[N+]=CC(=O)NCC(=O)NN`, the T/C [4] is reported as 107 % of control, the T/C [5] is reported as 110 % of control and the T/C [6] is reported as 121 % of control. The T/C [7] was 117 % of control.
With `O=NN(CCCl)C(=O)Nc1ccc(CCO)cc1` the T/C (dose: 1.56 mg/kg/injection, schedule: Q01DX009 (ip), vehicle: saline) was 195 % of control and the T/C [18] was 190 % of control.
With `Nc1nc(CCl)nc(Nc2ccccc2)n1` the T/C [10] was 96 % of control and the T/C [11] was 100 % of control.
